Laboratory results reported in patent US9078868B2, “Therapeutic agent for accelerating recovery of animal under medical treatment” (UNIVERSITY OF MIYAZAKI, priority 2010, dated 2015).
No end group written: not given here. *: point of attachment. Octanoyl = CCCCCCCC(=O)*

System: hospitalized animals (canines and felines) with poor physical conditions
Assay: Example 3-1: repeated dose of ghrelin (analyzed together with single dose animals), compiled by disease group
Format: in vivo
Design: key to Degree of anger or anxiety score after administration: 1 = calm/accustomed to staff … 5 = too violent to touch, bites
Conditions: for Activity (vigor) score after administration: before administration a score of 1, scale 1-7
Description: In these Examples, a canine-derived ghrelin (a peptide compound in which a side chain hydroxyl group of the serine residue at the 3rd position from the amino terminus is acylated with an n-octanoyl group in SEQ ID NO: 1) was used as ghrelin. The canine-derived ghrelin was chemically synthesized and then lyophilized, and a canine-derived ghrelin for administration containing 0.1, 0.3, 0.5, or 1 mg per vial of a canine-derived ghrelin was prepared.
To administer ghrelin to animals, the canine-derived ghrelin was dissolved to a concentration of 1 mg/2 mL in physiological saline and intravenously, subcutaneously, or intramuscularly injected after the dose was adjusted depending on the body weight.
The evaluation parameters used were activity (vigor), body temperature, hematology parameters (blood cell test values), serum biochemistry parameters (biochemical test values), the degree of anger or anxiety, and respiratory rate. […] The degree of anger or anxiety of an animal observed visually by an observer were also evaluated using the following criteria: 1. calm and accustomed to a health care professional, 2. able to be touched by but unaccustomed to a health care professional and restless, 3. wandering around or hiding in the kennel with anxiety, 4. able to be barely touched, and 5. too violent to be touched by a health care professional and tends to bite.
A canine-derived ghrelin was repeatedly administered intravenously or subcutaneously to each of the animals with poor physical conditions. The dose of intravenous administration was approximately 5 μg/kg or 10 μg/kg, and the dose of subcutaneous administration was approximately 100 μg/kg. The mean number of doses in repeated administration was approximately four times, and the maximum number of doses was 11 times. The administration period was one to six days.
Evaluation parameters evaluated before and after administration of ghrelin were appetite, quantity of meal, biochemical test values (GOT, GPT, BUN, CRE, CPK, CRP), blood cell test values (white blood cell [WBC], platelet [PLT]), body temperature, activity (vigor), skin, coat, wellness, the degree of anger or anxiety, respiratory rate, and others. These parameters were analyzed together with the results of the animals receiving a single dose (Examples 1 and 2). The analysis results were compiled by disease, such as renal dysfunction, tumor, fracture, and accident (see Table 3-1). Statistical analysis of values before and after administration was performed using a paired t-test.

[1] = fracture, accident, etc., 19 animals, single or repeated dose
[2] = fracture, accident, etc., *p < 0.05, **p < 0.01
[3] = gastrointestinal tract disease, 7 animals, single or repeated dose
[4] = genital disease, 29 animals, single or repeated dose
[5] = genital disease, *p < 0.05, **p < 0.01
[6] = infection or parasitism, 15 animals, single or repeated dose

## GSS (n-octanoyl) FLSPEHQKLQQRKESKKPPAKLQPR (GSS(Octanoyl)FLSPEHQKLQQRKESKKPPAKLQPR; listed as Canis familiaris) [ghrelin, chemically synthesized, lyophilized]
[1]
  BUN: animals improved/animals evaluated: 6/7
  Body temperature: animals improved/animals evaluated: 5/7
  CPK: animals improved/animals evaluated: 2/2
  CRE: animals improved/animals evaluated: 2/3
  Degree of anger: animals improved/animals evaluated: 6/10
  GOT: animals improved/animals evaluated: 6/6
  GPT: animals improved/animals evaluated: 6/7
  PLT: animals improved/animals evaluated: 4/8
  Vigor: animals improved/animals evaluated: 13/16
  WBC: animals improved/animals evaluated: 3/7
fracture, accident, etc., 19 animals, single or repeated dose, #respiratory rate was stabilized in 2 of 2 animals
  Respiratory rate: animals improved/animals evaluated: 2/2
[2]
  BUN: change after vs before administration (t-test): Decreased*
  Body temperature: change after vs before administration (t-test): Decreased*
  CPK: change after vs before administration (t-test): Decreased*
  Degree of anger: change after vs before administration (t-test): Improved*
  GOT: change after vs before administration (t-test): Decreased*
  GPT: change after vs before administration (t-test): Decreased*
  Vigor: change after vs before administration (t-test): Improved**
fractures, accidents, etc., before administration 18.3 mg/dL
  BUN value after administration: 10.6 mg/dL
fractures, accidents, etc., before administration 39.2° C.
  Body temperature after administration: 38.0 °C
fractures, accidents, etc., before administration 42.4 IU/L
  CPK value after administration: 9.4 IU/L
fractures, accidents, etc., before administration 100/min
  Respiratory rate after administration: 50 min⁻¹
fractures, accidents, etc., before administration 996 IU/L
  GOT value after administration: 22 IU/L
fractures, accidents, etc., before administration 1000 IU/L
  GPT value after administration: 32 IU/L
fractures, accidents, etc., example
  Activity (vigor) score after administration: 3
fractures, accidents, etc., example, before administration a score of 5, scale 1-5
  Degree of anger or anxiety score after administration: 1
[3]
  BUN: animals improved/animals evaluated: 1/1
  Body temperature: animals improved/animals evaluated: 2/3
  CPK: animals improved/animals evaluated: 2/2
  Degree of anger: animals improved/animals evaluated: 0/1
  GOT: animals improved/animals evaluated: 3/3
  GPT: animals improved/animals evaluated: 3/3
  PLT: animals improved/animals evaluated: 0/1
  Vigor: animals improved/animals evaluated: 5/5
  WBC: animals improved/animals evaluated: 2/2
Gastrointestinal tract disease, *p < 0.05, **p < 0.01
  Vigor: change after vs before administration (t-test): Improved*
Gastrointestinal tract diseases, example
  Activity (vigor) score after administration: 5
[4]
  BUN: animals improved/animals evaluated: 3/3
  Body temperature: animals improved/animals evaluated: 11/11
  CRE: animals improved/animals evaluated: 1/2
  CRP: animals improved/animals evaluated: 5/5
  Degree of anger: animals improved/animals evaluated: 2/8
  GOT: animals improved/animals evaluated: 3/3
  GPT: animals improved/animals evaluated: 4/4
  PLT: animals improved/animals evaluated: 4/7
  Respiratory rate: animals improved/animals evaluated: 1/1
  Vigor: animals improved/animals evaluated: 13/15
  WBC: animals improved/animals evaluated: 5/7
[5]
  BUN: change after vs before administration (t-test): Decreased*
  Body temperature: change after vs before administration (t-test): Decreased**
  CRP: change after vs before administration (t-test): Decreased*
  Vigor: change after vs before administration (t-test): Improved**
Genital diseases, before administration 31.5 mg/dL
  BUN value after administration: 7.1 mg/dL
Genital diseases, before administration 100 mg/dL
  CRP value after administration: 16 mg/dL
Genital diseases, before administration 40.1° C.
  Body temperature after administration: 38.1 °C
Genital diseases, example
  Activity (vigor) score after administration: 3
[6]
  BUN: animals improved/animals evaluated: 2/2
  Body temperature: animals improved/animals evaluated: 3/3
  CPK: animals improved/animals evaluated: 1/1
  CRE: animals improved/animals evaluated: 1/1
  Degree of anger: animals improved/animals evaluated: 0/2
  GOT: animals improved/animals evaluated: 1/2
  GPT: animals improved/animals evaluated: 3/4
  PLT: animals improved/animals evaluated: 3/4
